Laboratory results from US20050282772A1, “New dietary supplement composition for obesity and inflammation” (priority 2004, published 2005).

What was measured:
[1] = Superoxide free radical-scavenging activity by NBT (nitro blue tetrazolium) method
Method: Superoxide Free Radical-Scavenging Activity. The superoxide free radical-scavenging activity was determined by the NBT (nitro blue tetrazolium) method. The reaction mixture contained EDTA (6.6 mM), NaCN (3 μg), riboflavin (2 μM), NBT (50 μM), various concentrations of the test drug in ethanol and a phosphate buffer (58 mM, pH 7.8) in a final volume of 3 ml. Optical density was measured at 560 nm. The test tubes were uniformly illuminated with an incandescent lamp for 15 min, after which the optical density was measured again at 560 nm. The percentage inhibition and superoxide radical generation was measured by comparing the absorbance values of the control and those of the test compounds.
(§1) The new phytochemical compositions of this invention are found to show antioxidant activity (Table 1; antioxidant activity is measured by two different mechanisms (a) Nitro blue tetrazolium (NBT) (b) DPPH free radical scavenging methods and are expressed in % of inhibition at 500 μg concentrations; higher the % inhibitory values, higher is the activity).

[2] = tested on: 5-Lipoxygenase; experiment: 5-Lipoxygenase inhibitory activity, colorimetric method (ferric xylenol orange); assay type: biochemical
Method: 5-Lipoxygenase Activity: The new phytochemical compositions were screened for their 5-Lipoxygenase inhibitory potential using colorimetric method. The assay mixture contained 50 mM phosphate buffer pH 6.3, 5-Lipoxygenase, various concentrations of test substances in dimethyl sulphoxide and linoleic acid in a total volume of 0.5 mL, after 5 min incubation of above reaction mixture, 0.5 mL ferric xylenol orange reagent was added and OD was measured after two minutes at 585 nm using spectrophotometer. Controls were run along with test in a similar manner except using vehicle instead of test substance solution. Percent inhibition was calculated by comparing absorbance of test solution with that of control. The new phytochemical compositions of this invention are found to show 5-lipoxygenase activity (Table 1; 5-lipoxygenase activity is expressed in % of inhibition at 100 μg concentrations; higher the % inhibitory values, higher is the activity).

[3] = DPPH free radical scavenging activity
Method: DPPH Free Radical Scavenging Activity. DPPH (1,1-diphenyl-2-picryl-hydrazyl) radical scavenging activity was measured based on the reduction of methanolic solution of the colored DPPH. Free radical scavenging ability of the test drug in ethanol added to the methanolic solution of DPPH is […] to the difference in initial and final absorption of DPPH solution at 516 nm. The reaction mixture contained 1×10^−4 mM methanolic solution of DPPH and various concentrations of test drugs. The percentage inhibition was determined by comparing the absorbance values of test and control tubes.
as §1

[4] = similar active dose; animal study; cited from earlier work
[5] = in vivo; cited from earlier work

| % inhibition of 5-LOX activity at 100 μg concentrations [2] [%] | Compound | % inhibition of NBT free radical scavenging activity at 500 μg concentrations [1] [%] | % inhibition of DPPH free radical scavenging activity at 500 μg concentrations [3] [%] | ulcerogan index [4] | LD50 [5] [mg/kg] |
| --- | --- | --- | --- | --- | --- |
| 0 | Cl.N[C@H]1C(O)O[C@H](CO)[C@@H](O)[C@@H]1O (some centres unmarked) [Glucosamine HCl, glucosamine hydrochloride] | 5.6 | 2.8 | – | – |
| – | CCCCC1C(=O)N(c2ccccc2)N(c2ccccc2)C1=O [phenylbutazone] | – | – | 1.7 | – |
| 0.2 | Calcium, potassium salt of (−)-HCA [HCA (70%)] | 25.5 | 0 | – | – |
| – | N[C@@H](Cc1c[nH]c2ccc(O)cc12)C(=O)O [Composition 5-HTP, 5-Hydroxytryptophan] | – | – | – | > 2500 |
